“And” between values parts separate entries of the source, which are not always exact repeats. Identical values can stand only once.
Test system: brown planthoppers, Nilaparvata lugens
Test: Field efficacy on brown planthopper in transplanted rice (small-plot trials A-D)
Type: in vivo
Conditions: Sulfoxaflor 50 g/ha, Chlorpyrifos 500 g/ha, mixture 50 + 500 g/ha; for % Control: Trial A
Method: Applications were made to transplanted rice, Oryza sativa, using standard small-plot efficacy methods. Chemicals were diluted in water and all treatments were applied using a backpack sprayer calibrated to deliver 500 liters of spray per hectare. Experimental plots measured 5 by 10 meters and each treatment was replicated three times in each trial. At the specified intervals after treatment, brown planthoppers, Nilaparvata lugens, were counted in 10 randomly selected hills per plot. Data were transformed to percent control relative to the untreated plots, then subjected to analysis of variance, and means were separated using Tukey's HSD (p=0.1). Expected control was calculated using the method of Colby and compared to observed control. See the Table Section for the results of the Field Trials.

Compound | % Control (10 DAT) | % Control at DAT (Trial B, 10 DAT) | % Control (1 DAT, relative to untreated plots) | % Control (3 DAT) | % Control (7 DAT) | % Control (15 DAT) | % Control at DAT (Trial B, 1 DAT) | % Control at DAT (Trial B, 3 DAT) | % Control at DAT (Trial B, 7 DAT) | % Control at DAT (Trial B, 15 DAT) | % Control at DAT (Trial C, 1 DAT) | % Control at DAT (Trial C, 3 DAT) | % Control at DAT (Trial C, 7 DAT) | % Control at DAT (Trial C, 10 DAT) | % Control at DAT (Trial C, 15 DAT) | % Control at DAT (Trial D, 1 DAT) | % Control at DAT (Trial D, 7 DAT) | % Control at DAT (Trial D, 10 DAT) | % Control at DAT (Trial D, 15 DAT)
CC(c1ccc(C(F)(F)F)nc1)S(C)(=O)=NC#N (stereo not drawn) [Sulfoxaflor] | 6.8% | 48.2% |  |  |  |  |  |  |  |  |  |  |  |  |  |  |  |  | 
CCOP(=S)(OCC)Oc1nc(Cl)c(Cl)cc1Cl [Chlorpyrifos] | 7.8 b % and 7.8% | 39.8 b % and 39.8% | 13.7 bc % and 13.7% | 37.5 b % and 37.5% | 32.4 b % and 32.4% | 21.0 b % and 21% | 45.2 ab % and 45.2% | 64.8 b % and 64.8% | 54.0 b % and 54% | 57.8 b % and 57.8% | 53.4 ab % and 53.4% | 67.0 b % and 67% | 59.7 b % and 59.7% | 10.5 b % and 10.5% | 37.9 b % and 37.9% | 59.6 c % and 59.6% | 53.8 c % and 53.8% | 18.2 c % and 18.2% | 27.0 c % and 27%
